Measurements as given in the Deep4Chem optical property database.
Several values for one entry are separate records, joined by “and”; a condition that tells them apart may be missing. Identical values can stand only once. Each block holds one molecule with its values, some of them ahead of it.

Assay: solvent given as SMILES
[1] = in O=P(c1ccccc1)(c1ccccc1)c1ccccc1Oc1ccccc1P(=O)(c1ccccc1)c1ccccc1

emission maximum (in ClC(Cl)Cl): 600 nm
Compound: CCCCN1C(=O)c2c(Br)c(Br)c3c4c(Br)c(Br)c5c6c(c(Br)c(Br)c(c7c(Br)c(Br)c(c2c37)C1=O)c64)C(=O)N(CCCC)C5=O

Compound: COC(=O)/C(C#N)=c1\s/c(=c2/s/c(=C(/C#N)C(=O)OC)c3cc(-c4ccc(C(F)(F)F)cc4)sc23)c2sc(-c3ccc(C(F)(F)F)cc3)cc12
emission maximum (in Cc1ccccc1): 625 nm

Compound: C=CCOC(=O)C(C#N)=C1C=C(/C=C/c2ccc(N(C)C)cc2)OC(/C=C/c2ccc(N(C)C)cc2)=C1
emission maximum (in C1CCOC1): 595 nm
emission maximum (in C1COCCO1): 564 nm
emission maximum (in CC#N): 624 nm
emission maximum (in CN(C)C=O): 616 nm
emission maximum (in Cc1ccccc1): 556 nm
emission maximum (in ClC(Cl)Cl): 585 nm
emission maximum (in ClCCCl): 614 nm
emission maximum (in ClCCl): 601 nm

emission maximum (in C1CCCCC1): 417 nm
Compound: COc1ccc(C2=C(c3ccc(OC)cc3)C(C)(C)c3cc(-c4ccccc4)ccc32)cc1

emission maximum (in C1COCCO1): 455 nm
Compound: COc1ccc(C2=N/C(=C\c3ccccc3)C(=O)N2)cc1OC

emission maximum (in CC1CCCCC1): 320 nm
emission maximum (in CC#N): 341 nm
emission maximum (in CO): 342 nm
Compound: COC(=O)C(NC(=O)OC(C)(C)C)c1ccc2oc(-c3ccc(F)cc3)nc2c1 (stereo unspecified)

emission maximum (in CS(C)=O): 439 nm
Compound: CCOC(=O)C1=C(N)n2c(=O)c3ccccc3c(=O)n2C1c1cccs1 (stereo unspecified)

Compound: CC(C)(C)c1ccc(-c2sc3c(-c4ccc(C(C)(C)C)cc4)c4n(c3c2-c2ccc(C(C)(C)C)cc2)[B-](F)(F)[N+]2=Cc3c(-c5ccc(C(C)(C)C)cc5)c5sc(-c6ccc(C(C)(C)C)cc6)c(-c6ccc(C(C)(C)C)cc6)c5n3[B-](F)(F)[N+]2=C4)cc1
emission maximum (in CC#N): 627 nm
emission maximum (in CCCCCC): 626 nm
emission maximum (in CN(C)C=O): 636 nm
emission maximum (in Cc1ccccc1): 632 nm
emission maximum (in ClCCl): 631 nm

emission maximum (in CO): 478 nm
Compound: COc1ccc(-c2nc(-c3cccc(C#N)c3)[nH]c2-c2ccc(OC)cc2)cc1

Compound: Cc1cc(C)c(B(c2ccc(N(c3ccccc3)c3ccccc3)cc2)c2c(C)cc(C)cc2C)c(C)c1
emission maximum (in Cc1ccccc1): 437 nm

Compound: Fc1c(-n2c3ccccc3c3ccccc32)c(-c2nnc(-c3ccccc3)o2)c(-n2c3ccccc3c3ccccc32)c(-n2c3ccccc3c3ccccc32)c1-n1c2ccccc2c2ccccc21
emission maximum (in Cc1ccccc1): 483 nm

emission maximum (in ClCCl): 401 nm
Compound: FC(F)(F)c1ccccc1B1c2ccccc2Nc2ccccc21

emission maximum (in C1CCCCC1): 411 nm
emission maximum (in CC#N): 420 nm
emission maximum (in CO): 414 nm
emission maximum (in ClCCl): 420 nm
Compound: C(C#Cc1ccc2ccc3cccc4ccc1c2c34)#Cc1cccc2ccccc12

Compound: Cc1cccc(NC(=O)c2ccc(N(C)C)cc2)c1
emission maximum (in C1CCCCC1): 452 nm
emission maximum (in C1CCOC1): 518 nm
emission maximum (in CC#N): 502 nm
emission maximum (in CCOCC): 498 nm

emission maximum (in O): 660 nm
Compound: Cc1ccccc1C1=C2C=CC(=[N+](C)C)C=C2[Si](C)(C)c2cc(N(C)C)ccc21

emission maximum (in C1CCCCC1): 482 nm
emission maximum (in CC#N): 509 nm
emission maximum (in CO): 500 nm
emission maximum (in ClCCl): 495 nm
emission maximum (in O): 512 nm
Compound: CN(C)c1ccc(-c2nc(-c3ccccc3)c3ccccn23)cc1

Compound: c1ccc(-c2nc3c(c4c2-c2ccccc2CC4)-c2ccccc2CC3)cc1
emission maximum (in C1CCOC1): 362 nm
emission maximum (in CC#N): 360 nm
emission maximum (in CCCCCC): 363 nm
emission maximum (in CCOC(C)=O): 359 nm
emission maximum (in CO): 362 nm
emission maximum (in CS(C)=O): 360 nm
emission maximum (in Cc1ccccc1): 361 nm
emission maximum (in ClCCl): 361 nm

emission maximum (in C1CCCCC1): 400 nm
emission maximum (in CC#N): 506 nm
Compound: Cc1ccc(/C=C/c2ccccc2-[n+]2noc([O-])c2-c2ccccc2)cc1

emission maximum (in CC#N): 482 nm
emission maximum (in CCOC(C)=O): 438 nm
emission maximum (in CN(C)C=O): 490 nm
emission maximum (in CS(C)=O): 496 nm
emission maximum (in c1ccccc1): 412 nm
Compound: CCOC(=O)CN(CC(=O)OCC)c1ccc(-c2cc(-c3ccncc3)nc(-c3ccncc3)c2)cc1

emission maximum (in CC#N): 515 nm
emission maximum (in ClCCl): 512 nm
Compound: COc1ccc(-c2cc3c(s2)c(C(C)=O)cc(=O)n3Cc2ccccc2)cc1

emission maximum (in ClCCl): 448 nm
Compound: COC(=O)c1ccc(C(=O)NC(C)(C)C)c2c1ccc1c3ccccc3c3ccccc3c12

emission maximum (in ClC(Cl)Cl): 409 nm
Compound: CCCCn1c2ccccc2c2ccc3c4cc(-c5ccc(OC)cc5)ccc4n(CCCC)c3c21

emission maximum (in CS(C)=O): 565 nm
Compound: CCCCN1/C(=C/C=C/C2=[N+](C)c3ccccc3C2(C)C)C(C)(C)c2ccccc21

emission maximum (in C1CCCCC1): 377 nm
Compound: COc1ccc(-c2ccc(-c3ccc(C#N)cc3)cc2)cc1

Compound: Cc1cc(C)c2c(c1)c1cc(C)cc(C)c1n2-c1ccc2c(c1)B(c1c(C(C)C)cc(C(C)C)cc1C(C)C)c1cc(-n3c4c(C)cc(C)cc4c4cc(C)cc(C)c43)ccc1N2c1ccccc1
emission maximum (in C1CCOC1): 447.96 nm
emission maximum (in CCOC(C)=O): 447.96 nm
emission maximum (in Cc1ccccc1): 441.5 nm
emission maximum (in ClCCl): 453.4 nm
emission maximum (in c1cc(-c2cccc(-n3c4ccccc4c4ccccc43)c2)cc(-n2c3ccccc3c3ccccc32)c1): 451 nm

Compound: c1ccc(-c2nc(-c3ccccc3)nc(-c3ccc(N4c5ccccc5C(c5ccccc5)(c5ccccc5)c5ccccc54)cc3)n2)cc1
emission maximum [1]: 472.98 nm

emission maximum (in C1CCOC1): 415.2 nm
Compound: CC(C)(C)c1ccc(-c2nc(-c3ccc(-n4c5ccccc5c5c6oc7ccccc7c6ccc54)cc3)nc(-c3ccc(C(C)(C)C)cc3)n2)cc1

emission maximum (in ClCCl): 645 nm
Compound: CN(C)c1ccc(C2=C3C=C(c4ccc(C=O)cc4)S[C@]34c3ccccc3[C@H]2c2ccccc24)cc1

emission maximum (in ClCCl): 580 nm
Compound: Brc1cc2nc3cc4c5c(cccc5c3nc2cc1Br)C(c1ccccc1)=C(c1ccccc1)O4

emission maximum (in C1CCCCC1): 426 nm
emission maximum (in CC#N): 558 nm
emission maximum (in CC(C)O): 493 nm
emission maximum (in CO): 512 nm
emission maximum (in CS(C)=O): 568 nm
emission maximum (in ClC(Cl)Cl): 509 nm
emission maximum (in c1ccccc1): 483 nm and 486 nm
Compound: CN(C)c1ccc2nc(-c3ccc(C(=O)O)cc3)sc2c1

emission maximum (in C1CCCCC1): 375 nm
emission maximum (in CC#N): 375 nm
emission maximum (in CO): 375 nm
emission maximum (in ClC(Cl)Cl): 396 nm
Compound: CC1(C)CC(NCc2ccc3ccc4cccc5ccc2c3c45)CC(C)(C)N1

emission maximum (in CC#N): 421 nm
Compound: COc1ccc(-n2nc(C(=O)c3ccc(Cl)cc3)c(N3CCCC3)n2)cc1

Compound: N#Cc1ccc(N2c3ccccc3C(c3ccccc3)(c3ccccc3)c3ccccc32)cc1
emission maximum (in Cc1ccccc1): 428 nm

emission maximum (in ClCCl): 427 nm
Compound: COc1ccc(-c2c3ccccc3c(-c3ccc(OC)cc3)c3ccccc23)cc1

emission maximum (in C1CCOC1): 594 nm
Compound: c1cc2c3c(cccc3c1)-c1c-2c2c3ccccc3c3ccc4c5c6c(c7c8ccccc8c8ccc9c%10c%11c(c%12c%13ccccc%13c%13ccc%14c1c1c2c3c4c2c1c1c%14c%13c%12c%10c1c1c9c8c7c5c21)-c1cccc2cccc-%11c12)-c1cccc2cccc-6c12

Compound: Cc1c(C)c(B(c2c(C)c(C)c(N3c4ccccc4Oc4ccccc43)c(C)c2C)c2c(C)c(C)c(N3c4ccccc4Oc4ccccc43)c(C)c2C)c(C)c(C)c1C#N
emission maximum (in c1ccc([Si](c2ccccc2)(c2ccc(-n3c4ccccc4c4ccccc43)cc2)c2ccc(-n3c4ccccc4c4ccccc43)cc2)cc1): 517 nm

emission maximum (in ClCCl): 434 nm
Compound: CCCCC(CC)COc1ccc2nc(-c3ccc(-c4ccc(OC)cc4)s3)sc2c1 (stereo unspecified)

emission maximum (in ClCCl): 566 nm
emission maximum (in OCC(F)(F)F): 555 nm
Compound: FC(F)(F)C(F)(F)C(F)(F)C(F)(F)C(F)(F)C(F)(F)CCOc1nnc(Cl)nn1

emission maximum (in CCO): 462 nm
emission maximum (in ClCCl): 460 nm
Compound: CCN(CC)c1ccc2cc(C#N)/c(=N\C(C)=O)oc2c1

emission maximum (in ClCCl): 378 nm
Compound: c1ccc(-n2c3ccccc3c3cc(-n4ccc5cc(-c6ccc7c(c6)C(c6ccccc6)(c6ccccc6)c6ccccc6-7)ccc54)ccc32)cc1

Compound: CCCCCCCCCCCCn1cccc1/C=C/c1cc(OCCCC)c(/C=C/c2cccn2CCCCCCCCCCCC)cc1OCCCC
emission maximum (in Cc1ccccc1): 472 nm

emission maximum (in CC1CCCO1): 348 nm
Compound: c1ccc2c(c1)-c1ccccc1C21c2ccccc2-c2ccncc21

emission maximum (in CC#N): 587 nm
emission maximum (in ClCCl): 550 nm
Compound: COC(=O)c1cc(=O)n(C)c2cc(-c3ccc(N4CCN(C)CC4)cc3)sc12

Compound: COc1ccc(-c2nnc(-c3cc(-n4c5ccccc5c5ccccc54)c(-n4c5ccccc5c5ccccc54)cc3-c3nnc(-c4ccc(OC)cc4)o3)o2)cc1
emission maximum (in CC#N): 515.81 nm
emission maximum (in Cc1ccccc1): 459 nm
emission maximum (in ClCCl): 487.92 nm

emission maximum (in ClCCl): 421 nm
Compound: c1ccc(C2(c3ccccc3)c3ccc4ccc5ccccc5c4c3-c3c2ccc2ccc4ccccc4c32)cc1

Compound: N#Cc1c(-c2ccc(N(c3ccccc3)c3ccccc3)cc2)c(C#N)c(-c2ccc(N(c3ccccc3)c3ccccc3)cc2)c(C#N)c1-c1ccc(N(c2ccccc2)c2ccccc2)cc1
emission maximum [1]: 533 nm

emission maximum (in CC#N): 545 nm and 458 nm
Compound: Oc1ccccc1/C=N/c1ccccc1/N=C/c1ccccc1O

Compound: CCCCCN(c1ccccc1)c1ccc2c(c1)C(CC)(CC)c1cc(/C=C/c3ccc(/C=C(\C#N)C(=O)O)s3)ccc1-2
emission maximum (in C1CCOC1): 597 nm
emission maximum (in C1COCCO1): 618 nm
emission maximum (in CC#N): 496 nm
emission maximum (in CC(C)=O): 574 nm
emission maximum (in CCOC(C)=O): 580 nm
emission maximum (in CN(C)C=O): 504 nm
emission maximum (in CS(C)=O): 517 nm
emission maximum (in ClCCl): 584 nm

emission maximum (in ClC(Cl)Cl): 610 nm
Compound: CCCCN1C(=O)c2cc(Oc3ccc(C(C)(C)C)cc3)c3c4c(Oc5ccc(C(C)(C)C)cc5)c(Oc5ccc(C(C)(C)C)cc5)c5c6c(cc(Oc7ccc(C(C)(C)C)cc7)c(c7c(Oc8ccc(C(C)(C)C)cc8)c(Oc8ccc(C(C)(C)C)cc8)c(c2c37)C1=O)c64)C(=O)N(CCCC)C5=O

emission maximum (in C1CCCCC1): 329 nm
Compound: CCCC[Si](C)(C)c1cccc2ccccc12

emission maximum (in O): 435 nm
Compound: O=C(O)CCCCCn1c2ccc(Br)cc2c(=O)c2cc(S(=O)(=O)O)ccc21

Compound: O=C1O[B-]2(OC1=O)OC(c1ccccc1)=CC(c1ccc3ccccc3c1)=[O+]2
emission maximum (in CC#N): 555 nm
emission maximum (in ClC(Cl)(Cl)Cl): 451 nm

emission maximum (in C1CCCCC1): 432 nm
Compound: CC[Si](CC)(CC)Oc1cccc(O[Si](CC)(CC)CC)c1-c1c2ccccc2c(-c2c(O[Si](CC)(CC)CC)cccc2O[Si](CC)(CC)CC)c2ccccc12

emission maximum (in ClC(Cl)Cl): 588 nm
Compound: F[B-]1(F)n2c(ccc2-c2ccccc2)C(c2ccc(I)cc2)=C2C=CC(c3ccccc3)=[N+]21
